Test results published in US10683278B2 (JINAN UNIVERSITY, priority 2015, dated 2020).

Biological target: T1, AXL kinase (Homo sapiens, UniProt P30530)
T1 construct: purchased Invitrogen PV4803
T1 sequence (P30530 26-894): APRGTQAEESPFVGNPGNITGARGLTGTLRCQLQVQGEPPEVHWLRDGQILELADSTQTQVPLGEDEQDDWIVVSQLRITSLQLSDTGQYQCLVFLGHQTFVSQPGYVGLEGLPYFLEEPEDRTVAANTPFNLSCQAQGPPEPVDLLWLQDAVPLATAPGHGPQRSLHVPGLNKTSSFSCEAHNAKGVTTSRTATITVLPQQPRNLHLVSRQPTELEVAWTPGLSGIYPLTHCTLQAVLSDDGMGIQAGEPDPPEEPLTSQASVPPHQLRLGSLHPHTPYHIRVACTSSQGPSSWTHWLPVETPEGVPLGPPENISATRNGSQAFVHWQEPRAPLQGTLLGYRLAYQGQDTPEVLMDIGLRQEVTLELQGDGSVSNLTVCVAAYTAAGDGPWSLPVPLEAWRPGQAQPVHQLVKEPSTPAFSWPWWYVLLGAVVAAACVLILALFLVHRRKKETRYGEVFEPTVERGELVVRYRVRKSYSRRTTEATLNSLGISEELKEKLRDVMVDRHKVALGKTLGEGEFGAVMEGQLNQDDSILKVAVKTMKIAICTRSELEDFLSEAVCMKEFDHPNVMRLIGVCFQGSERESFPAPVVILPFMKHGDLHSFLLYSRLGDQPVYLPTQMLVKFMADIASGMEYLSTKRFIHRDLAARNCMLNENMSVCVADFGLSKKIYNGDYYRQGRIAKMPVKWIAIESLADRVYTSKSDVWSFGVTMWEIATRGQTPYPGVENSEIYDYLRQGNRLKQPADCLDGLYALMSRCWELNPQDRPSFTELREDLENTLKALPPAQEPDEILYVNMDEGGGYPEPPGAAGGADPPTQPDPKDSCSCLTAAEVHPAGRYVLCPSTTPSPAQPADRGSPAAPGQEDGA
Assay: IC50 test on AXL kinase (Z′-LYTE FRET kinase activity detection)
Type: biochemical
Details: Z′-LYTE FRET peptide assay, 1 h reaction
Source text: Kinase activity detection: The activity of compounds on kinases was detected by a secondary reaction which used the Z′-LYTE™ technique (a detection using fluorescence, enzyme coupling, and based on differences in susceptibility of phosphorylated and non-phosphorylated polypeptides to proteolytic cleavage), followed the fluorescence resonance energy transfer (FRET) principle, and used Z′-LYTE™ FRET peptide substrates (Invitrogen, Z′-LYTE™ KINASE ASSAY KIT—TYR 2 PEPTIDE, PV3191). AXL kinase (invitrogen, PV4803) was diluted stepwise, FRET peptide was then added, followed by ATP, then by compounds at different concentrations, reacted for 1 h, site-specific proteases were then added to recognize and cleave non-phosphorylated FRET peptides, reacted for 1 h, and […] at 445 nm and 520 nm were detected using excitation wavelength of 400 nm.

Row | SMILES | IC50
1 | Cc1c(C(=O)Nc2ccc(Oc3ncnc4[nH]cc(-c5ccccc5)c34)c(F)c2)c(=O)c2cc(C3=CCCC3)ccc2n1C [TL50160, 6-cyclopentenyl-N-(3-fluoro-4-((5-phenyl-7H-pyrrolo[2,3-d]pyrimidin-4-yl)oxy)phenyl)-1,2-dimethyl-4-oxo-1,4-dihydroquinoline-3-carboxamide] | 4530 nM
2 | Cc1c(C(=O)Nc2ccc(Oc3ncnc4[nH]cc(-c5ccccc5)c34)c(F)c2)c(=O)c2cc(C3CCCC3)ccc2n1C [TL50161, 6-cyclopentyl-N-(3-fluoro-4-((5-phenyl-7H-pyrrolo[2,3-d]pyrimidin-4-yl)oxy)phenyl)-1,2-dimethyl-4-oxo-1,4-dihydroquinoline-3-carboxamide] | 195 nM
3 | Cc1c(C(=O)Nc2ccc(Oc3ncnc4[nH]cc(-c5ccccc5)c34)c(F)c2)c(=O)c2cc(-c3ccccc3)ccc2n1C [TL50163, N-(3-fluoro-4-(5-phenyl-7H-pyrrolo[2,3-d]pyrimidin-4-yloxy)phenyl)-1,2-dimethyl-4-oxo-6-phenyl-1,4-dihydroquinoline-3-carboxamide] | > 10000 nM
4 | C=C(C)c1ccc2c(c1)c(=O)c(C(=O)Nc1ccc(Oc3ncnc4[nH]cc(-c5ccccc5)c34)c(F)c1)c(C)n2C [TL50167, N-(3-fluoro-4-(5-phenyl-7H-pyrrolo[2,3-d]pyrimidin-4-yloxy)phenyl)-1,2-dimethyl-4-oxo-6-(prop-1-en-2-yl)-1,4-dihydroquinoline-3-carboxamide] | 324 nM
5 | Cc1c(C(=O)Nc2ccc(Oc3ncnc4[nH]cc(-c5ccccc5)c34)c(F)c2)c(=O)c2cc(-c3cnn(C4CCNCC4)c3)ccc2n1C [TL50180] | > 10000 nM
6 | Cc1c(C(=O)Nc2ccc(Oc3ncnc4[nH]cc(-c5ccccc5)c34)c(F)c2)c(=O)c2cc3ccccc3cc2n1C [TL50198, N-(3-fluoro-4-((5-phenyl-7H-pyrrolo[2,3-d]pyrimidin-4-yl)oxy)phenyl)-1,2-dimethyl-4-oxo-1,4-dihydrobenzo[g]quinoline-3-carboxamide] | > 10000 nM
7 | COc1ccc2c(c1)c(=O)c(C(=O)Nc1ccc(Oc3ncnc4[nH]cc(-c5ccccc5)c34)c(F)c1)c(C)n2C [TL4800005, N-(3-fluoro-4-((5-phenyl-7H-pyrrolo[2,3-d]pyrimidin-4-yl)oxy)phenyl)-6-methoxy-1,2-dimethyl-4-oxo-1,4-dihydroquinoline-3-carboxamide] | 99 nM
8 | Cc1ccc2[nH]c(C)c(C(=O)Nc3ccc(Oc4ncnc5[nH]cc(-c6ccccc6)c45)c(F)c3)c(=O)c2c1 [TL4800025, N-(3-fluoro-4-((5-phenyl-7H-pyrrolo[2,3-d]pyrimidin-4-yl)oxy)phenyl)-2,6-dimethyl-4-oxo-1,4-dihydroquinoline-3-carboxamide] | 557 nM
9 | CCn1c(C)c(C(=O)Nc2ccc(Oc3ncnc4[nH]cc(-c5ccccc5)c34)c(F)c2)c(=O)c2cc(C)ccc21 [TL4800067, 1-ethyl-N-(3-fluoro-4-(5-phenyl-7H-pyrrolo[2,3-d]pyrimidin-4-yloxy)phenyl)-2,6-dimethyl-4-oxo-1,4-dihydroquinoline-3-carboxamide] | 146 nM
10 | CCCCn1c(C)c(C(=O)Nc2ccc(Oc3ncnc4[nH]cc(-c5ccccc5)c34)c(F)c2)c(=O)c2cc(C)ccc21 [TL4800080, 1-butyl-N-(3-fluoro-4-((5-phenyl-7H-pyrrolo[2,3-d]pyrimidin-4-yl)oxy)phenyl)-2,6-dimethyl-4-oxo-1,4-dihydroquinoline-3-carboxamide] | 476 nM
11 | CC1COc2c(N3CCN(C)CC3)c(F)cc3c(=O)c(C(=O)Nc4ccc(Oc5ncnc6[nH]cc(-c7ccccc7)c56)c(F)c4)cn1c23 (stereo not drawn) [TL4800088, 9-fluoro-N-(3-fluoro-4-((5-phenyl-7H-pyrrolo[2,3-d]pyrimidin-4-yl)oxy)phenyl)-3-methyl-10-(4-methylpiperazin-1-yl)-7-oxo-3,7-dihydro-2H-[1,4]oxazino[2,3,4-ij]quinoline-6-carboxamide] | 429 nM
12 | O=C(Nc1ccc(Oc2ncnc3[nH]cc(-c4ccccc4)c23)c(F)c1)c1cn(C2CC2)c2cc(N3CCNCC3)c(F)cc2c1=O [TL4800095, 1-cyclopropyl-6-fluoro-N-(3-fluoro-4-((5-phenyl-7H-pyrrolo[2,3-d]pyrimidin-4-yl)oxy)phenyl)-4-oxo-7-(piperazin-1-yl)-1,4-dihydroquinoline-3-carboxamide] | 110 nM
13 | CCCn1c(C)c(C(=O)Nc2ccc(Oc3ncnc4[nH]cc(-c5ccccc5)c34)c(F)c2)c(=O)c2cc(C)ccc21 [TL4800104, N-(3-fluoro-4-(5-phenyl-7H-pyrrolo[2,3-d]pyrimidin-4-yloxy)phenyl)-2,6-dimethyl-4-oxo-1-propyl-1,4-dihydroquinoline-3-carboxamide] | 533 nM
14 | CCCc1ccc2c(c1)c(=O)c(C(=O)Nc1ccc(Oc3ncnc4[nH]cc(-c5ccccc5)c34)c(F)c1)c(C)n2C [TL4800116, N-(3-fluoro-4-((5-phenyl-7H-pyrrolo[2,3-d]pyrimidin-4-yl)oxy)phenyl)-1,2-dimethyl-4-oxo-6-propyl-1,4-dihydroquinoline-3-carboxamide] | 61 nM
15 | CCc1c(C(=O)Nc2ccc(Oc3ncnc4[nH]cc(-c5ccccc5)c34)c(F)c2)c(=O)c2cc(C)ccc2n1C [TL4800139, 2-ethyl-N-(3-fluoro-4-(5-phenyl-7H-pyrrolo[2,3-d]pyrimidin-4-yloxy)phenyl)-1,6-dimethyl-4-oxo-1,4-dihydroquinoline-3-carboxamide] | 78 nM
16 | Cc1ccc2c(c1)c(=O)c(C(=O)Nc1ccc(Oc3ncnc4[nH]cc(-c5ccccc5)c34)c(F)c1)c(-c1ccccc1)n2C [TL4800144, N-(3-fluoro-4-(5-phenyl-7H-pyrrolo[2,3-d]pyrimidin-4-yloxy)phenyl)-1,6-dimethyl-4-oxo-2-phenyl-1,4-dihydroquinoline-3-carboxamide] | 78 nM
17 | CCc1ccc2c(c1)c(=O)c(C(=O)Nc1ccc(Oc3ncnc4[nH]ccc34)c(F)c1)c(C)n2C [TL4800147] | 157 nM
18 | Cc1cc2c3c(c1)c(=O)c(C(=O)Nc1ccc(Oc4ncnc5[nH]cc(-c6ccccc6)c45)c(F)c1)cn3CCC2 [TL4800160, N-(3-fluoro-4-((5-phenyl-7H-pyrrolo[2,3-d]pyrimidin-4-yl)oxy)phenyl)-9-methyl-1-oxo-1,5,6,7-tetrahydropyrido[3,2,1-ij]quinoline-2-carboxamide] | 129 nM
19 | Cc1ccc2c(c1)c(=O)c(C(=O)Nc1ccc(Oc3ncnc4[nH]cc(-c5ccccc5)c34)c(F)c1)cn2C [TL4800167, N-(3-fluoro-4-(5-phenyl-7H-pyrrolo[2,3-d]pyrimidin-4-yloxy)phenyl)-1,6-dimethyl-4-oxo-1,4-dihydroquinoline-3-carboxamide] | 152 nM
20 | CCc1ccc2c(c1)c(=O)c(C(=O)Nc1ccc(Oc3ncnc4[nH]cc(-c5ccccc5)c34)c(F)c1)cn2C [TL4800178, 6-ethyl-N-(3-fluoro-4-(5-phenyl-7H-pyrrolo[2,3-d]pyrimidin-4-yloxy)phenyl)-1-methyl-4-oxo-1,4-dihydroquinoline-3-carboxamide] | 56 nM
21 | CCc1ccc2c(c1)c(=O)c(C(=O)Nc1ccc(Oc3ncnc4[nH]cc(-c5ccccc5)c34)cc1)c(C)n2C [TL4830014, 6-ethyl-1,2-dimethyl-4-oxo-N-(4-((5-phenyl-7H-pyrrolo[2,3-d]pyrimidin-4-yl)oxy)phenyl)-1,4-dihydroquinoline-3-carboxamide] | 105 nM
22 | COc1cc2ncnc(Oc3ccc(NC(=O)c4cn(CCF)c5c(F)c(N6CCN(C)CC6)c(F)cc5c4=O)cc3F)c2cc1OC [TL4830040, N-(4-(6,7-dimethoxyquinazolin-4-yloxy)-3-fluorophenyl)-6,8-difluoro-1-(2-fluoroethyl)-7-(4-methylpiperazin-1-yl)-4-oxo-1,4-dihydroquinoline-3-carboxamide] | 224 nM
23 | COc1cc2ncnc(Oc3ccc(NC(=O)c4cn(C5CC5)c5c(F)c(N6CC(C)NC(C)C6)c(F)c(N)c5c4=O)cc3F)c2cc1OC (stereo not drawn) [TL4830044, 5-amino-1-cyclopropyl-N-(4-(6,7-dimethoxyquinazolin-4-yloxy)-3-fluorophenyl)-7-(3,5-dimethylpiperazin-1-yl)-6,8-difluoro-4-oxo-1,4-dihydroquinoline-3-carboxamide] | 503 nM
24 | CCc1cc2c(=O)c(C(=O)Nc3ccc(Oc4ncnc5cc(OC)c(OC)cc45)c(F)c3)c(C)n(C)c2cc1N1CCN(C)CC1 [TL4830071, N-(4-(6,7-dimethoxyquinazolin-4-yloxy)-3-fluorophenyl)-6-ethyl-1,2-dimethyl-7-(4-methylpiperazin-1-yl)-4-oxo-1,4-dihydroquinoline-3-carboxamide] | 14.8 nM
